Results taken from article PMC9501232, “Novel 4-Azapregnene Derivatives as Potential Anticancer Agents: Synthesis, Antiproliferative Activity and Molecular Docking Studies” (Molecules, 2022).

Test system: T47-D cells
Experiment: MTT cell proliferation assay, T47-D
Assay type: cell-based, human
Settings: 72 h
Procedure: Cell lines, namely LNCaP, PC-3, T47-D and NHDF were obtained from American Type Culture Collection (ATCC; Manassas, VA, USA) and cultured in 75 cm^2 culture flasks at 37 °C in a humidified air incubator with 5% CO2. LNCaP, PC-3 and T47-D cells, which were used in passages 20th to 27th, 25th to 29th and 10th to 15th, respectively, were cultured in RPMI 1640 medium (Sigma-Aldrich, Inc., St. Louis, MO, USA) with 10% fetal bovine serum (FBS; Sigma-Aldrich, Inc. St. Louis, MO, USA) and 1% of the antibiotic mixture of 10,000 IU/mL penicillin G and […] of streptomycin (Sp, Sigma-Aldrich, Inc. St. Louis, MO, USA). Finally, NHDF cells (Normal Human Dermal Fibroblasts) were cultured in RPMI 1640 medium supplemented with 10% FBS, 2 mM L-glutamine, 10 mM HEPES, 1 mM sodium pyruvate and 1% of an antibiotic/antimycotic mixture (10,000 U/mL penicillin G, 100 mg/mL streptomycin and 25 µg/mL amphotericin B) (Ab; Sigma-Aldrich, Inc. St. Louis, MO, USA), and these cells were used in passages 10 to 12. For all cell types, the medium was renewed every 2–3 days until cells reach nearly the confluence state. Then, they were detached gently by trypsinization (trypsin-EDTA solution: 0.125 g/L of trypsin and 0.02 g/L of EDTA).
All the stock solutions were prepared by dissolving compounds in dimethyl sulfoxide (DMSO; Sigma-Aldrich, Inc., St. Louis, MO, USA) at 10 mM and stored at 4 °C. From these solutions, the several diluted compounds solutions in different concentrations were freshly prepared in a complete culture medium before each experiment.
As previously referred, cells were trypsinized after reaching a near confluence state and counted by the trypan blue exclusion assay in a Neubauer chamber. Then, 100 µL of cell suspension/well with an initial density of 2 × 10^4 cells/mL were seeded in 96-well culture plates (Nunc, Apogent, Denmark) and left to adhere for 48 h. After cells adherence, the medium was replaced by the distinct solutions of the compounds in the study (30 µM for preliminary studies and 0.01, 0.1, 1, 10, 50 and 100 µM for concentration–response studies) in the appropriate medium for approximately 72 h. 5-FU and finasteride were used as positive controls and untreated cells were used as the negative control. Each experiment was performed in quadruplicate and independently performed at least two times. The in vitro antiproliferative effects were evaluated by the MTT assay (Sigma-Aldrich, Inc. St. Louis, USA). After the incubation period, the medium was removed and 100 µL of phosphate buffer saline (NaCl 137 mM, KCl 2.7 mM, Na2HPO4 10 mM and KH2PO4 1.8 mM in deionized water and pH adjusted to 7.4) were used to wash the cells. Then, 100 µL of the MTT solution (5 mg/mL) was prepared in the appropriate serum-free medium and was added to each well, followed by incubation for 4 h at 37 °C. Hereafter, the MTT containing medium was removed and the formazan crystals were dissolved in DMSO. Then the absorbance was measured at 570 nm using a microplate spectrophotometer BIO-RAD xMarkTM. Cell viability values were expressed as percentages relative to the absorbance determined in the cells used as negative controls.
The data are expressed as a mean ± standard deviation (SD) and differences between groups were considered statistically significant when p < 0.05. The IC50 values were determined through sigmoidal fitting analysis with variable slope and considering a 95% confidence level. All data shown are representative of at least two independent experiments.

C[C@]12CC[C@H]3[C@@H](CC=C4NC(=O)CC[C@@]43C)[C@@H]1CC[C@@H]2C(=O)/C=C/c1cccnc1 [Compound 3g, 21E-[(Pyridin-3-yl)methylidene]-4-azapregn-5-ene-3,20-dione]
MTT screening, cell proliferation (30 µM, average ± SD): 1.0 ± 0.4 percentage of negative control | IC50 (Homo sapiens, T47D, MTT): 1.33 µM
